The target of the assay is T1, transthyretin tetramer (Homo sapiens, UniProt P02766).
T1 construct: from tissue; host or cells: human serum from three middle-aged and older persons
Description: Stabilization Test 1 of Transthyretin Tetramer (serum, urea denaturation, electrophoresis and Western blotting). The settings on record: glabridin alone added at concentrations up to 50 μM. Type of assay: biochemical. How it is done: Serums were obtained from blood taken from three middle-aged and older persons. […] The resulting mixtures were incubated at 25° C. for 30 minutes, and then denatured with urea. Using these samples, the transthyretins (the tetramers, the dimers, and the monomers) in the serum were quantitated by electrophoresis and Western blotting. The stabilization effect was investigated using the ratio of the monomers (monomer) to the total amounts of the transthyretins (total) (monomer/total) and the ratio of the tetramers (tetramer) to the total amounts of the transthyretins (total) (tetramer/total). The analysis results of the monomer/total ratio are shown in the left of FIG. 1. The analysis results of the tetramer/total ratio are shown in the right of FIG. 1.

Where [1] appears, read: serum of three middle-aged and older persons, 25° C. 30 minutes, then denatured with urea.

Each structure is given as a SMILES string.

Turning to `CC1(C)C=Cc2c(ccc3c2OC[C@@H](c2ccc(O)cc2O)C3)O1` [glabridin], under setting [1], the “ratio of the monomers to the total amounts of the transthyretins (monomer/total)” value is “did not change” and the “ratio of the tetramers to the total amounts of the transthyretins (tetramer/total)” value is on record as “did not increase”. Also, under “serum”, the “stabilization effect for the transthyretin” value is “not observed”.

Source of the values: US12629350B2, “Transthyretin tetramer stabilizing agent, and preventing agent or progression suppressing agent for transthyretin amyloidosis” (KANEKA CORPORATION, priority 2020, dated 2026).
